What is called MIC is the lowest concentration that inhibits growth of the organism.

One experiment deals with Cryptococcus neoformans. Description: Compound was tested in vitro for antifungal activity against Cryptococcus neoformans. In kind it is functional.
Another experiment has as its system Candida albicans. Description: Compound was tested in vitro for antifungal activity against Candida albicans. In kind it is functional.
In another experiment the test system is Aspergillus fumigatus. Description: Compound was tested in vitro for antifungal activity against Aspergillus fumigatus. In kind it is functional.
In another experiment the test system is Kluyveromyces marxianus. Description: Compound was tested in vitro for antifungal activity against Candida kefyr. In kind it is functional.
Experiment [1] deals with Trichophyton benhamiae. Put plainly: (§1) Compound was tested in vitro for antifungal activity against Trichophyton mentagrophytes. In kind it is functional, trichophyton mentagro.
For experiment [2], the system named is Aspergillus flavus. Put plainly: (§2) Compound was tested in vitro for antifungal activity against Aspergillus flavus. In kind it is functional, asperigillus.
Experiment [3] relates to Aspergillus flavus. Described as §2. In kind it is functional.
The test system of experiment [4] is Trichophyton benhamiae. Described as §1. In kind it is functional, Arthroderma benhamiae.

In brackets after ≈: the same amount, converted by molar mass.

Consider `Clc1ccc(CN2CCc3ccccc3C2Cn2cncn2)cc1` (stereo not drawn), for which the MIC was 6.25 µg/mL (≈ 18.4 µM) in the experiment on Cryptococcus neoformans; > 50 µg/mL against Candida albicans; 4 µg/mL (≈ 11.8 µM) against Aspergillus fumigatus; 0.39 µg/mL (≈ 1.15 µM) against Kluyveromyces marxianus; 0.25 µg/mL (≈ 0.738 µM) in the experiment on Trichophyton benhamiae [1]; 25 µg/mL (≈ 73.8 µM) against Aspergillus flavus [2].

Turning to `c1ccc(CN2CCc3ccccc3C2Cn2ccnc2)cc1` (stereo not drawn), the MIC with Cryptococcus neoformans is > 50 µg/mL; in the experiment on Candida albicans it was > 50 µg/mL; against Aspergillus fumigatus, 25 µg/mL (≈ 82.4 µM); against Kluyveromyces marxianus it was > 50 µg/mL; in the experiment with Trichophyton benhamiae [1], 0.19 µg/mL (≈ 0.626 µM); against Aspergillus flavus [2] it was 25 µg/mL (≈ 82.4 µM).

`Clc1ccc(CN2CCc3ccccc3C2Cn2ccnc2)c(Cl)c1` (stereo not drawn): the minimal inhibitory concentration (MIC) in the experiment with Cryptococcus neoformans was 1.56 µg/mL (≈ 4.19 µM); against Candida albicans it was > 50 µg/mL; against Aspergillus fumigatus, 0.39 µg/mL (≈ 1.05 µM); with Kluyveromyces marxianus, 0.19 µg/mL (≈ 0.51 µM); against Trichophyton benhamiae [1], 6.25 µg/mL (≈ 16.8 µM); in the experiment with Aspergillus flavus [2] it was 0.78 µg/mL (≈ 2.1 µM).

Take `Fc1ccc(CN2CCc3ccccc3C2Cn2cncn2)cc1` (stereo not drawn): the minimum inhibitory concentration (MIC) in the experiment on Cryptococcus neoformans is > 50 µg/mL; against Candida albicans, > 50 µg/mL; in the experiment with Aspergillus fumigatus, > 50 µg/mL; against Kluyveromyces marxianus, > 50 µg/mL; against Trichophyton benhamiae [1], 1 µg/mL (≈ 3.1 µM); against Aspergillus flavus [2], > 50 µg/mL.

On to `Fc1ccc(CN2CCc3ccccc3C2Cn2ccnc2)c(F)c1` (stereo not drawn), for which the minimal inhibitory concentration (MIC) in the experiment with Cryptococcus neoformans is > 50 µg/mL; with Candida albicans, > 50 µg/mL; in the experiment with Aspergillus fumigatus, 6.25 µg/mL (≈ 18.4 µM); against Kluyveromyces marxianus, > 50 µg/mL; in the experiment on Trichophyton benhamiae [1] it was 0.39 µg/mL (≈ 1.15 µM); against Aspergillus flavus [2] it was 0.78 µg/mL (≈ 2.3 µM).

Turning to `Fc1ccc(CN2CCc3ccccc3C2Cn2cncn2)c(F)c1` (stereo not drawn), the MIC with Cryptococcus neoformans is > 50 µg/mL; against Candida albicans, > 50 µg/mL; against Aspergillus fumigatus it was > 50 µg/mL; in the experiment with Kluyveromyces marxianus it was 0.39 µg/mL (≈ 1.15 µM); against Trichophyton benhamiae [1], 2 µg/mL (≈ 5.88 µM); in the experiment with Aspergillus flavus [2], > 50 µg/mL.

With `Clc1ccc(CN2CCc3ccccc3C2Cn2ccnc2)cc1` (stereo not drawn), the MIC was 0.39 µg/mL (≈ 1.15 µM) in the experiment with Cryptococcus neoformans; > 50 µg/mL against Candida albicans; 3.12 µg/mL (≈ 9.23 µM) against Aspergillus fumigatus; 0.1 µg/mL (≈ 0.296 µM) against Kluyveromyces marxianus; 0.19 µg/mL (≈ 0.562 µM) against Trichophyton benhamiae [1]; 0.19 µg/mL (≈ 0.562 µM) against Aspergillus flavus [2].

For `Clc1ccc(CN2CCc3ccccc3C2Cn2cncn2)c(Cl)c1` (stereo not drawn), the MIC is 12.5 µg/mL (≈ 33.5 µM) in the experiment with Cryptococcus neoformans; > 50 µg/mL with Candida albicans; > 50 µg/mL in the experiment with Aspergillus fumigatus; > 50 µg/mL in the experiment with Kluyveromyces marxianus; 4 µg/mL (≈ 10.7 µM) in the experiment on Trichophyton benhamiae [1]; > 50 µg/mL in the experiment on Aspergillus flavus [2].

In the case of `Fc1ccc(CN2CCc3ccccc3C2Cn2ccnc2)cc1` (stereo not drawn), the MIC with Cryptococcus neoformans was > 50 µg/mL; against Candida albicans it was > 50 µg/mL; in the experiment with Aspergillus fumigatus it was 12.5 µg/mL (≈ 38.9 µM); with Kluyveromyces marxianus, > 50 µg/mL; against Trichophyton benhamiae [1], 0.1 µg/mL (≈ 0.311 µM); against Aspergillus flavus [2], 6.25 µg/mL (≈ 19.4 µM).

`c1ccc(CN2CCc3ccccc3C2Cn2cncn2)cc1` (stereo not drawn): the MIC in the experiment on Cryptococcus neoformans is > 50 µg/mL; with Candida albicans, > 50 µg/mL; in the experiment on Aspergillus fumigatus, > 50 µg/mL; in the experiment on Kluyveromyces marxianus, > 50 µg/mL; with Trichophyton benhamiae [1] it was 4 µg/mL (≈ 13.1 µM); against Aspergillus flavus [2], > 50 µg/mL.

In the case of `C[C@@H]1[C@H](O)[C@@H](C)/C=C/C=C/C=C/C=C/C=C/C=C/C=C/[C@H](O[C@@H]2O[C@H](C)[C@@H](O)[C@H](N)[C@@H]2O)C[C@@H]2O[C@](O)(C[C@@H](O)C[C@@H](O)[C@H](O)CC[C@@H](O)C[C@@H](O)CC(=O)O[C@H]1C)C[C@H](O)[C@H]2C(=O)O` [AMPHOTERICIN B], the MIC in the experiment on Cryptococcus neoformans was found to be 0.19 µg/mL (≈ 0.206 µM); against Candida albicans, 0.19 µg/mL (≈ 0.206 µM); against Aspergillus fumigatus it was 25 µg/mL (≈ 27.1 µM); against Kluyveromyces marxianus it was 0.19 µg/mL (≈ 0.206 µM); with Trichophyton benhamiae [1], 1.56 µg/mL (≈ 1.69 µM); in the experiment on Aspergillus flavus [2], 12.5 µg/mL (≈ 13.5 µM).

For `OC(Cn1cncn1)(Cn1cncn1)c1ccc(F)cc1F` [FLUCONAZOLE], the minimal inhibitory concentration (MIC) with Cryptococcus neoformans was 3.12 µg/mL (≈ 10.2 µM); in the experiment with Candida albicans, > 50 µg/mL; against Aspergillus fumigatus, > 50 µg/mL; with Aspergillus flavus [3], > 50 µg/mL; in the experiment on Trichophyton benhamiae [4], > 50 µg/mL; with Kluyveromyces marxianus, 0.39 µg/mL (≈ 1.27 µM).

Turning to `Clc1ccc(COC(Cn2ccnc2)c2ccc(Cl)cc2Cl)c(Cl)c1` (stereo not drawn) [MICONAZOLE], the MIC in the experiment on Cryptococcus neoformans was determined as 0.19 µg/mL (≈ 0.457 µM); in the experiment on Candida albicans, 12.5 µg/mL (≈ 30 µM); in the experiment on Aspergillus fumigatus, 0.39 µg/mL (≈ 0.937 µM); in the experiment with Aspergillus flavus [3], 0.39 µg/mL (≈ 0.937 µM); in the experiment with Trichophyton benhamiae [4], 0.39 µg/mL (≈ 0.937 µM); against Kluyveromyces marxianus, 0.09 µg/mL (≈ 0.216 µM).

(Values after ChEMBL document CHEMBL1129093, “Synthesis and biological activities of a novel class of azole-containing antifungal agents” (1996).)
